Measurements as given in patent publication US11401286B2 (Tetra Discovery Partners, LLC, priority 2012, dated 2022).

target: PDE4D7 (Homo sapiens (Human), UniProt Q08499); conditions: read-out: PDE4D7 IC50; PDE4D7 without asterisk
Sequence (Q08499 other isoform, or with tags, fused parts or gaps): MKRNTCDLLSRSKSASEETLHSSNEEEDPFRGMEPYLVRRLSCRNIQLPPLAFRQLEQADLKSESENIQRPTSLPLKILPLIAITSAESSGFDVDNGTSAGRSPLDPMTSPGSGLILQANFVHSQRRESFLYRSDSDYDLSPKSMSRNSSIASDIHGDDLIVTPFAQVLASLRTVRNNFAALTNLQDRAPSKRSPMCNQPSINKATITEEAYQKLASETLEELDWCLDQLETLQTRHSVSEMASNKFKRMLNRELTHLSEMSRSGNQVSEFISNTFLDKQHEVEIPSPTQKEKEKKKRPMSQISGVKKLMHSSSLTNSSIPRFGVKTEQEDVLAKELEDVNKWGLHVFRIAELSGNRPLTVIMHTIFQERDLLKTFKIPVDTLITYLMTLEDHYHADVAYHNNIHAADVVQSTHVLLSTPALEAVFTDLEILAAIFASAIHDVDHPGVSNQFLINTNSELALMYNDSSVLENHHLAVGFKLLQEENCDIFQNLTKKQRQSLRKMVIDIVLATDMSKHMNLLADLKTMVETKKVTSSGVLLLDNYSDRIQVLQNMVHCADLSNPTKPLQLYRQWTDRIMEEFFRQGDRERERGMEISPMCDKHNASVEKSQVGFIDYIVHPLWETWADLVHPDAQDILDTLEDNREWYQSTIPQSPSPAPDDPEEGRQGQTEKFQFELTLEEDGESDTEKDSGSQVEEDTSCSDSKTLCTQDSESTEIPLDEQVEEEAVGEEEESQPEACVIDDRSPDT
Description: Here, a kinetic assay of cAMP hydrolysis by purified PDE4 was used, in which PDE4 activity was measured by coupling the formation of the PDE4 reaction product, 5′-adenosine monophosphate, to the oxidation of reduced nicotinamide adenine dinucleotide (NADH) by the use of three coupling enzymes (myokinase, pyruvate kinase and lactate dehydrogenase), which allows fluorescent determination of reaction rates. Assays are performed in 96-well plates in a total volume of 200 μl/well. Compounds are dissolved in dimethylsulfoxide (DMSO) and added to plates in a volume of 10 μl followed by addition of 165 μl of assay mix. Plates are pre-incubated at 25° C. for 15 min and the reactions are initiated by the addition of 25 μl of cAMP followed by thorough mixing. […] Initial rates (slopes) are determined from linear portions of the progress curves. Final concentrations of assay components are as follows: 50 mM Tris, pH 8, 10 mM MgCl2, 50 mM KCl, 2% DMSO, 5 mM tris(2-carboxyethyl)phosphine (TCEP), 0.4 mM phosphenolpyruvate (PEP), 0.01 mM NADH, 0.04 mM adenosine triphosphate (ATP), 0.004 mM cAMP, 7.5 units myokinase from yeast, 1.6 units pyruvate kinase, 2 units lactate dehydrogenase, and either 0.5 nM human PDE4D7 or 10 nM human PDE4B1. All data are percent normalized relative to controls and are presented as percent inhibition. […] Human PDE4D7 contained a mutation of serine 54 to aspartic acid to mimic activation by cAMP-dependent protein kinase A (PKA).
PDE4D7*=PDE4D7 containing a UCR1 activating mutation S54D.

SMILES	IC50 [µM]
CCc1c(C)nc(-c2ccc(Cl)s2)nc1Nc1ccc(Cn2cc(Cl)cn2)cc1 [Example 304, N-[4-[(4-Chloropyrazol-1-yl)methyl]phenyl]-2-(5-chloro-2-thienyl)-5-ethyl-6-methyl-pyrimidin-4-amine]	> 1
CCc1c(C)nc(-c2ccc(Cl)s2)nc1Nc1ccc(Cc2nc(C(=O)OC)c[nH]2)cc1 [Example 305, Methyl 2-[[4-[[2-(5-chloro-2-thienyl)-5-ethyl-6-methyl-pyrimidin-4-yl]amino]phenyl]methyl]-1H-imidazole-4-carboxylate]	> 1
CCc1c(C)nc(-c2ccc(Cl)s2)nc1Nc1ccc(Cc2nc(C(=O)O)c[nH]2)cc1 [Example 306, 2-[[4-[[2-(5-Chloro-2-thienyl)-5-ethyl-6-methyl-pyrimidin-4-yl]amino]phenyl]methyl]-1H-imidazole-4-carboxylic acid]	> 1
CCCNC(=O)Cc1ccc(Nc2nc(-c3ccc(Cl)s3)nc(C)c2CC)cc1 [Example 307, 2-[4-[[2-(5-Chloro-2-thienyl)-5-ethyl-6-methyl-pyrimidin-4-yl]amino]phenyl]-N-propyl-acetamide]	< 1
CCc1c(C)nc(-c2ccc(Cl)s2)nc1Nc1ccc(CC(=O)NC)cc1 [Example 308, 2-[4-[[2-(5-Chloro-2-thienyl)-5-ethyl-6-methyl-pyrimidin-4-yl]amino]phenyl]-N-methyl-acetamide]	> 1
CCNC(=O)Cc1ccc(Nc2nc(-c3ccc(Cl)s3)nc(C)c2CC)cc1 [Example 309, 2-[4-[[2-(5-Chloro-2-thienyl)-5-ethyl-6-methyl-pyrimidin-4-yl]amino]phenyl]-N-ethyl-acetamide]	< 1
CCc1c(C)nc(-c2ccc(Cl)s2)nc1Nc1ccc(Cc2nc(C(N)=O)c[nH]2)cc1 [Example 310, 2-[[4-[[2-(5-Chloro-2-thienyl)-5-ethyl-6-methyl-pyrimidin-4-yl]amino]phenyl]methyl]-1H-imidazole-4-carboxamide]	> 1
CCc1c(C)nc(-c2ccc(Cl)s2)nc1NCc1ccc(B(O)O)cc1 [Example 311, [4-[[[2-(5-Chloro-2-thienyl)-5-ethyl-6-methyl-pyrimidin-4-yl]amino]methyl]phenyl]boronic acid]	> 1
CCc1c(C)nc(-c2ccc(Cl)s2)nc1Nc1ccc2c(c1)CS(=O)(=O)C2 [Example 312, 2-(5-Chloro-2-thienyl)-N-(2,2-dioxo-1,3-dihydro-2-benzothiophen-5-yl)-5-ethyl-6-methyl-pyrimidin-4-amine]	> 1
Clc1cccc(-c2nc3c(c(Nc4ccc(Cc5nn[nH]n5)cc4)n2)SCCC3)c1 [Example 313, 2-(3-Chlorophenyl)-N-[4-(2H-tetrazol-5-ylmethyl)phenyl]-7,8-dihydro-6H-thiopyrano[3,2-d]pyrimidin-4-amine]	< 1
N#CNC(=O)Cc1ccc(Nc2nc(-c3cccc(Cl)c3)nc3c2SCCC3)cc1 [Example 314, 2-[4-[[2-(3-Chlorophenyl)-7,8-dihydro-6H-thiopyrano[3,2-d]pyrimidin-4-yl]amino]phenyl]-N-cyano-acetamide]	< 1
N#CNC(=O)Cc1ccc(Nc2nc(-c3cccc(Cl)c3)nc3c2S(=O)(=O)CCC3)cc1 [Example 315, 2-[4-[[2-(3-Chlorophenyl)-5,5-dioxo-7,8-dihydro-6H-thiopyrano[3,2-d]pyrimidin-4-yl]amino]phenyl]-N-cyano-acetamide]	< 1
O=S1(=O)CCCc2nc(-c3cccc(Cl)c3)nc(Nc3ccc(Cc4nn[nH]n4)cc3)c21 [Example 316, 2-(3-Chlorophenyl)-5,5-dioxo-N-[4-(2H-tetrazol-5-ylmethyl)phenyl]-7,8-dihydro-6H-thiopyrano[3,2-d]pyrimidin-4-amine]	< 1
CCc1c(C)nc(-c2ccc(Cl)s2)nc1Nc1ccc(CS(C)(=O)=O)cc1 [Example 317, 2-(5-chloro-2-thienyl)-5-ethyl-6-methyl-N-[4-(methylsulfonylmethyl)phenyl]pyrimidin-4-amine]	> 1

tested on: recombinant human PDE4; conditions: reported value; read-out: IC50 with respect to inhibiting recombinant human PDE4; cited from earlier work

SMILES	IC50 [µM]
COc1ccc(C2CNC(=O)C2)cc1OC1CCCC1 (stereo not drawn) [rolipram]	~0.2
